These results are taken from PubChem BioAssay AID1918936 (Molecular Pharmacology Branch, DTP, NCI, 2023).

The test system of the assay is 349418-098-R-PDC complex spheroid viability. The experiment in a line: Anticancer human tumor 349418-098-R-PDC patient-derived lung adenocarcinoma cell line growth inhibition. Conditions: for viability, T/C: stronger effect = lower value. The text has this:
Multicellular complex tumor spheroid response to LSD1 Inhibitor Iadademstat in combination with a variety of drugs and investigational agents in selected tumor cell lines
The current study was undertaken to assess response to LSD1 inhibitors in combination with standard-of-care drugs and investigational agents in solid tumor complex spheroid models as well as in the K-562 leukemia. Complex spheroids include a stromal component modeled by human endothelial cells (HUVEC) and fibroblasts modeled by human mesenchymal stem cells (MSCs). The concentration ranges selected for each drug and investigational agent were based upon clinically achievable concentrations if the clinical Cmax of the agent was known.
Compounds. The drugs and investigational agents used in this study are listed on Table 1. All of the agents used, including staurosporine (NSC755774) and gemcitabine (NSC613327), were obtained from the Developmental Therapeutics Program, NCI. FDA-approved anticancer drugs are available from the NCI at http://dtp.nci.nih.gov/branches/dscb/oncology_drugset_explanation.html. Drugs and investigational agents were >95% pure by proton nuclear magnetic resonance (NMR) and liquid chromatography/mass spectrometry (LC/MS). Stock solutions were prepared at 400x in DMSO, stored at -70 degrees C, and diluted in fresh medium prior to their use. The final concentration of DMSO in cell culture wells never exceeded 0.25% (v/v). The FDA-approved anticancer drug set is available from the Developmental Therapeutics Program at https://dtp.cancer.gov/organization/dscb/obtaining/available_plates.htm. All drugs and investigational agents were tested over a range starting from a high concentration at or near the clinical Cmax and decreasing in half-log increments. If the clinical Cmax for an agent had not been determined, the highest concentration tested was 10 microM.
Cell Lines. The patient-derived cancer cell (PDC) lines: 292921-168-R-J2-PDC, K24384-001-R-PDC, and 521955-158-R2-J5-PDC pancreatic carcinomas, 556581-035-R-J1 ovarian carcinoma, 324938-238-R-J1-PDC, 855422-203-R-J1-PDC and 883617-216-R-J1-PDC urothelial bladder carcinomas, 743489-274-T-PDC renal cell carcinoma, 138582-R-J1 Merkel cell tumor, K60290-347-R-J1 and K57222-313-R-J1-PDC glioblastomas, 653999-131-R-J2-PDC, LG0703-F948-PDC, and 349418-098-R-PDC non-small cell lung carcinomas, 885512-296-R-J2-PDC, 171881-019-R-J1-PDC breast carcinomas and 186277-243-T-J2-PDC and 233499-124-R-J2-PDC colon carcinomas were obtained from the NCI Patient-Derived Models Repository (PDMR, https://pdmr.cancer.gov). The established cell lines NCI/ADR-RES (RRID:CVCL_14520 and OVCAR-5 (RRID:CVCL_1628) ovarian carcinomas, 786-O (RRID:CVCL_1051) and A498 (RRID:CVCL_A498) renal cell carcinoma, NCI-H211 (ATCC, cat. CRL-5824; RRID:CVCL_1529), NCI-H196 (ATCC, cat. CRL-5823, RRID:CVCL_1509), SW 1271 (ATCC, cat. CRL-2177, RRID:CVCL_1716) and NCI-H1876 (ATCC, cat. CRL-5902, RRID:CVCL_1503) small cell lung carcinomas, MDA-MB-231 (RRID:CVCL_0062) and MDA-MB-468 (RRID:CVCL_0419)breast carcinomas (10-12). Pooled donor human umbilical vein endothelial cells (HUVEC, Lonza, cat. CC-2519) and human mesenchymal stem cells (hMSC, Lonza, cat. PT-2501) were purchased from Lonza (Walkersville, MD).
Cell Culture. All cells were maintained in an incubator at 37 degrees C and 5% CO2 with 95% humidity. The PDC lines were cultured according to standard operating procedures established by the NCI PDMR (https://pdmr.cancer.gov). Briefly all PDCs were thawed and cultured in Matrigel-coated flasks prepared with a working solution of 1X Ham's F-12 nutrient mix, without supplementation (Invitrogen, Waltham, MA, cat. 11765054), 100 U/mL penicillin-streptomycin (Invitrogen, cat. 15140122), and 2.5% Matrigel (Corning Inc., Corning, NY, cat. 354248) for the first three passages. […]

Where [1] appears, read: curve of first compound, second compound 0.1 µM.
The mark [2] stands for this setting: curve of first compound, second compound 0.316 µM.
Where [3] appears, read: curve of first compound, second compound 1 µM.
Setting [4] is: curve of first compound, second compound 3.16 µM.
The mark [5] stands for this setting: curve of first compound, second compound 10 µM.
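Also: spheroids exposed to agents for seven days before readout.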

For the molecule `NS(=O)(=O)OCC1CC(n2ccc3c(NC4CCc5ccccc54)ncnc32)CC1O` (configuration not stated) + NC1CCC(NC2CC2c2ccccc2)CC1, the IC50 – broadly, the point on the concentration scale where inhibition reaches its midpoint – is, setting by setting: under setting [1], 67.2 nM; under setting [2], 86.6 nM; under setting [3], 93 nM; under setting [4], 82.3 nM; under setting [5], 66.6 nM. In addition, the viability, T/C – broadly, the result in the treated group divided by that in the control group, in per cent – was 99.3% (second compound 0.1 µM, first compound 0.00949 µM); 94.8% (second compound 0.1 µM, first compound 0.03 µM); 30.6% (second compound 0.1 µM, first compound 0.0949 µM); 15.2% (second compound 0.1 µM, first compound 0.3 µM); 8.16% (second compound 0.1 µM, first compound 0.949 µM); 4.47% (second compound 0.1 µM, first compound 3 µM). For the same molecule, the viability, T/C by setting is: (second compound 0.316 µM, first compound 0.00949 µM) 118%; (second compound 0.316 µM, first compound 0.03 µM) 100%; (second compound 0.316 µM, first compound 0.0949 µM) 44.5%; (second compound 0.316 µM, first compound 0.3 µM) 16.1%; (second compound 0.316 µM, first compound 0.949 µM) 7.56%; (second compound 0.316 µM, first compound 3 µM) 4.71%. The viability, T/C (second compound 1 µM, first compound 0.00949 µM) was 111%; the viability, T/C (second compound 1 µM, first compound 0.03 µM) was 104%; the viability, T/C (second compound 1 µM, first compound 0.0949 µM) is 47.1%; the viability, T/C (second compound 1 µM, first compound 0.3 µM) was 17.1%; the viability, T/C (second compound 1 µM, first compound 0.949 µM) is 6.19%; the viability, T/C (second compound 1 µM, first compound 3 µM) was 4.32%. The viability, T/C is 108% (second compound 3.16 µM, first compound 0.00949 µM); 103% (second compound 3.16 µM, first compound 0.03 µM); 40.6% (second compound 3.16 µM, first compound 0.0949 µM); 22.6% (second compound 3.16 µM, first compound 0.3 µM); 7.16% (second compound 3.16 µM, first compound 0.949 µM); 4.58% (second compound 3.16 µM, first compound 3 µM). The viability, T/C is 84.9% (second compound 10 µM, first compound 0.00949 µM); 88.7% (second compound 10 µM, first compound 0.03 µM); 33.6% (second compound 10 µM, first compound 0.0949 µM); 16.6% (second compound 10 µM, first compound 0.3 µM); 6.64% (second compound 10 µM, first compound 0.949 µM); 4.12% (second compound 10 µM, first compound 3 µM).

Regarding `NC1CC1c1ccc(-c2cccc(O)c2)cc1` (configuration not stated), the viability, T/C (compound 1 µM) was 113% [middle of 25 runs]. Further, the 50% inhibitory concentration (IC50) (compound alone, run of 02/01/2022) was greater than 10000 nM.

As to `CC(C)CC(NC(=O)C(Cc1ccccc1)NC(=O)c1cnccn1)B(O)O` (configuration not stated) + NC1CCC(NC2CC2c2ccccc2)CC1, the IC50 by setting is: under setting [1], less than 0.316 nM; under setting [2], less than 0.316 nM; under setting [3], less than 0.316 nM; under setting [4], less than 0.316 nM; under setting [5], less than 0.316 nM. Also, the viability, T/C reads like this: (second compound 0.1 µM, first compound 0.000316 µM) 9.12%; (second compound 0.1 µM, first compound 0.001 µM) 2.17%; (second compound 0.1 µM, first compound 0.00316 µM) 1.09%; (second compound 0.1 µM, first compound 0.01 µM) 0.81%; (second compound 0.1 µM, first compound 0.0316 µM) 0.69%; (second compound 0.1 µM, first compound 0.1 µM) 0.6%. The viability, T/C (second compound 0.316 µM, first compound 0.000316 µM) is 7.64%; the viability, T/C (second compound 0.316 µM, first compound 0.001 µM) was 2.21%; the viability, T/C (second compound 0.316 µM, first compound 0.00316 µM) is 1.14%; the viability, T/C (second compound 0.316 µM, first compound 0.01 µM) was 0.67%; the viability, T/C (second compound 0.316 µM, first compound 0.0316 µM) is 0.64%; the viability, T/C (second compound 0.316 µM, first compound 0.1 µM) is 0.58%. Also, the viability, T/C was 9.06% (second compound 1 µM, first compound 0.000316 µM); 1.64% (second compound 1 µM, first compound 0.001 µM); 0.88% (second compound 1 µM, first compound 0.00316 µM); 0.64% (second compound 1 µM, first compound 0.01 µM); 0.7% (second compound 1 µM, first compound 0.0316 µM); 0.62% (second compound 1 µM, first compound 0.1 µM). Besides, the viability, T/C by setting is: (second compound 3.16 µM, first compound 0.000316 µM) 8.64%; (second compound 3.16 µM, first compound 0.001 µM) 1.66%; (second compound 3.16 µM, first compound 0.00316 µM) 0.69%; (second compound 3.16 µM, first compound 0.01 µM) 0.63%; (second compound 3.16 µM, first compound 0.0316 µM) 0.46%; (second compound 3.16 µM, first compound 0.1 µM) 0.51%. Also, the viability, T/C is, setting by setting: (second compound 10 µM, first compound 0.000316 µM) 6.88%; (second compound 10 µM, first compound 0.001 µM) 1.23%; (second compound 10 µM, first compound 0.00316 µM) 0.77%; (second compound 10 µM, first compound 0.01 µM) 0.45%; (second compound 10 µM, first compound 0.0316 µM) 0.75%; (second compound 10 µM, first compound 0.1 µM) 0.41%.
